Experimental data published in ChEMBL document CHEMBL6092191, “Advancing Cancer Immunotherapy through Engineering New PD-L1 Degraders: A Comprehensive Study from Small Molecules to PD-L1-Specific Peptide-Drug Conjugates” (J Med Chem, 2024).
Blank lines part the entries; values can stand above or below the molecule they belong to. Calls of active or inactive are those of the source. The rule behind the calls is not given here.

How the values were obtained:
[1] = Drug uptake in human PC-9 cells at 10 uM by fluorescence microscopy; type: ADME, cell-based; settings: pc-9, 10 µM
[2] = biological target: COP9 signalosome complex subunit 5 (Homo sapiens) (UniProt Q92905); test: Induction of PD-L1 degradation in human NCI-H460 cells at 10 uM incubated for 24 hrs by Western blot analysis; type: cell-based
COP9 signalosome complex subunit 5 (Homo sapiens), sequence (Q92905 2-334 limits assumed, one chain of several): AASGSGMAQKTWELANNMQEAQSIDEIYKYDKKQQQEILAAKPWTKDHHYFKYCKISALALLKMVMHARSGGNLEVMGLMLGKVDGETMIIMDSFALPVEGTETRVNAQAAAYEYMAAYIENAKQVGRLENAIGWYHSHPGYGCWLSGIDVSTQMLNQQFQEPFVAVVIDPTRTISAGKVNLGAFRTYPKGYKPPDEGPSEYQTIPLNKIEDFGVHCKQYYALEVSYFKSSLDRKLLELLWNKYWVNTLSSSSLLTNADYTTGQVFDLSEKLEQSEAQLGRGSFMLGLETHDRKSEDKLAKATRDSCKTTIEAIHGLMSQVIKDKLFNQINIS

[3] = biological target: COP9 signalosome complex subunit 5 (Homo sapiens) (UniProt Q92905); test: Induction of PD-L1 degradation in human NCI-H460 cells at 10 uM incubated for 2 days by Western blot analysis; type: cell-based; settings: time 2.0 day
HEK-293T = test: Antiproliferative activity against HEK293T cells at 10 uM incubated for 4 days; type: toxicity, cell-based; settings: human, 96 h, time 4 day
3T3-L1 = test: Antiproliferative activity against mouse 3T3-L1 cells at 10 uM incubated for 4 days; type: toxicity, cell-based; settings: 3t3-l1, 96 h, time 4 day
[4] = Antiproliferative activity against human HTori-3 cells at 10 uM incubated for 4 days; type: toxicity, cell-based; settings: htori-3, 96 h, time 4 day
Mus musculus = test: Biodistribution in C57BL/6 mouse model bearing […] lung carcinoma cells assessed as increase in fluorescence signal in tumor at 2 mg/kg, iv measured 4 hrs post-injection by IVIS analysis; type: ADME, organism-based; settings: in vivo
[5] = system: Lewis lung carcinoma cell line; test: Anticancer activity against Lewis lung carcinoma cells xenografted in C57BL/6 mouse model assessed as tumor growth inhibition at 10 mg/kg, ip administered daily for 10 days; type: functional, organism-based; settings: time 10.0 day
[6] = system: Lewis lung carcinoma cell line; test: Antitumor T-cell immune response in Lewis lung carcinoma cells xenografted in C57BL/6 mouse model assessed as decrease in CD3+ CD4+ population in CD45+ T cells in tumor at 10 mg/kg, ip administered daily for 10 days by flow cytometry; type: functional, organism-based; settings: time 10.0 day
[7] = system: Lewis lung carcinoma cell line; test: Antitumor T-cell immune response in Lewis lung carcinoma cells xenografted in C57BL/6 mouse model assessed as increase in CD3+ CD8+ infiltration in CD45+ T cells in tumor at 10 mg/kg, ip administered daily for 10 days by flow cytometry; type: functional, organism-based; settings: time 10.0 day
[8] = system: Lewis lung carcinoma cell line; test: Antitumor T-cell immune response in Lewis lung carcinoma cells xenografted in C57BL/6 mouse model assessed as increase in ratio of CD8+ to CD4+ T cells in tumor at 10 mg/kg, ip administered daily for 10 days by flow cytometry; type: functional, organism-based; settings: time 10.0 day
[9] = system: Lewis lung carcinoma cell line; test: Antitumor T-cell immune response in Lewis lung carcinoma cells xenografted in C57BL/6 mouse model assessed as increase in IFN-gamma level in tumor at 10 mg/kg, ip administered daily for 10 days by ELISA; type: functional, organism-based; settings: time 10.0 day
[10] = system: Lewis lung carcinoma cell line; test: Antitumor T-cell immune response in Lewis lung carcinoma cells xenografted in C57BL/6 mouse model assessed as increase in TNF-alpha level in tumor at 10 mg/kg, ip administered daily for 10 days by ELISA; type: functional, organism-based; settings: time 10.0 day
[11] = system: Lewis lung carcinoma cell line; test: Antitumor T-cell immune response in Lewis lung carcinoma cells xenografted in C57BL/6 mouse model assessed as increase in GrB level in tumor at 10 mg/kg, ip administered daily for 10 days by ELISA; type: functional, organism-based; settings: time 10.0 day
[12] = Toxicity in C57BL/6 mouse model xenografted with […] cells assessed as body weight loss at 10 mg/kg, ip administered daily for 10 days; type: organism-based; settings: in vivo, 240 h, time 10 day
[13] = Toxicity in C57BL/6 mouse model xenografted with […] cells assessed as obvious damage in heart at 10 mg/kg, ip administered daily for 10 days by H and E staining based analysis; type: organism-based; settings: in vivo, 240 h, time 10 day
[14] = Toxicity in C57BL/6 mouse model xenografted with […] cells assessed as obvious damage in liver at 10 mg/kg, ip administered daily for 10 days by H and E staining based analysis; type: organism-based; settings: in vivo, 240 h, time 10 day
[15] = Toxicity in C57BL/6 mouse model xenografted with […] cells assessed as obvious damage in lung at 10 mg/kg, ip administered daily for 10 days by H and E staining based analysis; type: organism-based; settings: in vivo, 240 h, time 10 day
[16] = Toxicity in C57BL/6 mouse model xenografted with […] cells assessed as obvious damage in spleen at 10 mg/kg, ip administered daily for 10 days by H and E staining based analysis; type: organism-based; settings: in vivo, 240 h, time 10 day
[17] = Toxicity in C57BL/6 mouse model xenografted with […] cells assessed as obvious damage in kidney at 10 mg/kg, ip administered daily for 10 days by H and E staining based analysis; type: organism-based; settings: in vivo, 240 h, time 10 day
[18] = Toxicity in C57BL/6 mouse model xenografted with […] cells assessed as change in ALT level at 10 mg/kg, ip administered daily for 10 days; type: organism-based, Blood; settings: in vivo, 240 h, time 10 day
[19] = Toxicity in C57BL/6 mouse model xenografted with […] cells assessed as change in AST level at 10 mg/kg, ip administered daily for 10 days; type: organism-based, Blood; settings: in vivo, 240 h, time 10 day
[20] = Toxicity in C57BL/6 mouse model xenografted with […] cells assessed as change in serum creatinine level at 10 mg/kg, ip administered daily for 10 days; type: organism-based; settings: in vivo, 240 h, time 10 day
[21] = Toxicity in C57BL/6 mouse model xenografted with […] cells assessed as change in BUN level at 10 mg/kg, ip administered daily for 10 days; type: organism-based, Blood; settings: in vivo, 240 h, time 10 day
[22] = system: Lewis lung carcinoma cell line; test: Anticancer activity against Lewis lung carcinoma cells xenografted in C57BL/6 mouse model at 10 mg/kg, ip administered daily for 10 days relative to control; type: functional; settings: 240 h, time 10 day, read-out: TGI
[23] = system: Lewis lung carcinoma cell line; test: Antitumor activity against Lewis lung carcinoma cells xenografted in C57BL/6 mouse model at 24.5 mg/kg, ip administered daily for 8 days relative to control; type: functional; settings: 192 h, time 8 day, read-out: TGI
[24] = system: Lewis lung carcinoma cell line; test: Antitumor T-cell immune response in Lewis lung carcinoma cells xenografted in C57BL/6 mouse model assessed as increase in ratio of CD8+ to CD4+ T cells in tumor at 24.5 mg/kg, ip administered daily for 8 days by flow cytometry; type: functional, organism-based; settings: time 8.0 day
[25] = biological target: COP9 signalosome complex subunit 5 (Homo sapiens) (UniProt Q92905); test: Induction of PD-L1 degradation in human NCI-H460 cells at 10 uM by Western blot analysis; type: cell-based; settings: time <= 36.0 hrs

Drug uptake [1]: Time-dependent-effect | Activity [2]: Active
SMILES: COc1ccc2cc3[n+](cc2c1OCCCCCN)CCc1cc2c(cc1-3)OCO2.[Cl-]

Drug uptake (Mus musculus): Active
SMILES: CCN1/C(=C/C=C/C=C/C2=[N+](CCCCCC(=O)NCCN3C(=O)CC(SC[C@H](N)C(=O)NCCCCCC(=O)N[C@@H](CC(N)=O)C(=O)N[C@@H](Cc4ccc(O)cc4)C(=O)N[C@@H](CO)C(=O)N[C@@H](CCCCN)C(=O)N4CCC[C@H]4C(=O)N[C@H](C(=O)N[C@@H](CC(=O)O)C(=O)N[C@@H](CCCNC(=N)N)C(=O)N[C@@H](CCC(N)=O)C(=O)N[C@@H](Cc4ccc(O)cc4)C(=O)N[C@@H](Cc4cnc[nH]4)C(=O)N[C@@H](Cc4ccccc4)C(=O)O)[C@@H](C)O)C3=O)c3ccc(S(=O)(=O)O)cc3C2(C)C)C(C)(C)c2cc(S(=O)(=O)O)ccc21 (stereo partly drawn)

Drug uptake [1]: Time-dependent-effect | Activity [2]: Active
SMILES: COc1cc2c(cc1OC)-c1cc3ccc(OC)c(OCCCCCN)c3c[n+]1CC2.[Cl-]
Activity [5]: Active | inhibition in vivo at 10 mg/kg [22]: 68% | Activity [6]: Active | Activity [7]: Active | Activity [8]: Active | Activity [9]: Active | Activity [10]: Active | Activity [11]: Active | Activity [12]: Non-toxic | Activity [13]: Non-toxic | Activity [14]: Non-toxic | Activity [15]: Non-toxic | Activity [16]: Non-toxic | Activity [17]: Non-toxic | Activity [18]: Non-toxic | Activity [19]: Non-toxic | Activity [20]: Non-toxic | Activity [21]: Non-toxic

Activity [3]: inactive
SMILES: C[C@@H](O)[C@H](NC(=O)[C@@H]1CCCN1C(=O)[C@H](CCCCN)NC(=O)[C@H](CO)NC(=O)[C@H](Cc1ccc(O)cc1)NC(=O)[C@H](CC(N)=O)NC(=O)CCCCCNC(=O)[C@@H](N)CS)C(=O)N[C@@H](CC(=O)O)C(=O)N[C@@H](CCCNC(=N)N)C(=O)N[C@@H](CCC(N)=O)C(=O)N[C@@H](Cc1ccc(O)cc1)C(=O)N[C@@H](Cc1cnc[nH]1)C(=O)N[C@@H](Cc1ccccc1)C(=O)O
Activity (HEK-293T): Non-toxic | Activity (3T3-L1): Non-toxic | Activity [4]: Non-toxic | inhibition in vivo at 24.5 mg/kg [23]: 37% | Activity [24]: Active

Activity [25]: Active
SMILES: COc1cc2c(cc1OC)-c1cc3ccc(OC)c(OCCNC(=O)CCCC[C@@H]4SC[C@@H]5NC(=O)N[C@@H]54)c3c[n+]1CC2

More lines, now with the values behind:

SMILES: COc1ccc2cc3[n+](cc2c1OCCOCCOCCN)CCc1cc2c(cc1-3)OCO2.[Cl-]
Drug uptake [1]: Time-dependent-effect | Activity [2]: Active

SMILES: COc1ccc2cc3[n+](cc2c1OC)CCc1cc2c(cc1-3)OCO2.[Cl-] [BERBERINE CHLORIDE]
Drug uptake [1]: Time-dependent-effect | Activity [2]: Active

SMILES: COc1cc2c(cc1OC)-c1cc3ccc(OC)c(OCCNC(=O)OCc4ccc(SSC[C@H](N)C(=O)NCCCCCC(=O)N[C@@H](CC(N)=O)C(=O)N[C@@H](Cc5ccc(O)cc5)C(=O)N[C@@H](CO)C(=O)N[C@@H](CCCCN)C(=O)N5CCC[C@H]5C(=O)N[C@H](C(=O)N[C@@H](CC(=O)O)C(=O)N[C@@H](CCCNC(=N)N)C(=O)N[C@@H](CCC(N)=O)C(=O)N[C@@H](Cc5ccc(O)cc5)C(=O)N[C@@H](Cc5cnc[nH]5)C(=O)N[C@@H](Cc5ccccc5)C(=O)O)[C@@H](C)O)cc4)c3c[n+]1CC2.[Cl-]
Activity [3]: Active | Activity (HEK-293T): Toxic | Activity (3T3-L1): Toxic | Activity [4]: Toxic

SMILES: COc1ccc2cc3[n+](cc2c1OCCN)CCc1cc2c(cc1-3)OCO2.[Cl-]
Drug uptake [1]: Time-dependent-effect | Activity [2]: inactive

SMILES: COc1ccc2cc3[n+](cc2c1OCCCN)CCc1cc2c(cc1-3)OCO2.[Cl-]
Drug uptake [1]: Time-dependent-effect | Activity [2]: Active

SMILES: COc1cc2c(cc1OC)-c1cc3ccc(OC)c(OC)c3c[n+]1CC2.[Cl-] [PALMATINE CHLORIDE]
Drug uptake [1]: Time-dependent-effect | Activity [2]: Active | Activity [5]: Active; Highest Efficacy Of Tumor Growth Suppression Among Pmt Derivatives | Activity [6]: Active | Activity [7]: Active | Activity [8]: Active | Activity [9]: Active | Activity [10]: Active | Activity [11]: Active | Activity [12]: Non-toxic | Activity [13]: Non-toxic | Activity [14]: Non-toxic | Activity [15]: Non-toxic | Activity [16]: Non-toxic | Activity [17]: Non-toxic | Activity [18]: Non-toxic | Activity [19]: Non-toxic | Activity [20]: Non-toxic | Activity [21]: Non-toxic

SMILES: COc1cc2c(cc1OC)-c1cc3ccc(OC)c(OCCOCCOCCN)c3c[n+]1CC2.[Cl-]
Drug uptake [1]: Time-dependent-effect | Activity [2]: Active

SMILES: COc1cc2c(cc1OC)-c1cc3ccc(OC)c(OCCCN)c3c[n+]1CC2.[Cl-]
Drug uptake [1]: Time-dependent-effect | Activity [2]: Active | Activity [5]: Active | inhibition in vivo at 10 mg/kg [22]: 65% | Activity [6]: Active | Activity [7]: Active | Activity [8]: Active | Activity [9]: Active | Activity [10]: Active | Activity [11]: Active | Activity [12]: Non-toxic | Activity [13]: Non-toxic | Activity [14]: Non-toxic | Activity [15]: Non-toxic | Activity [16]: Non-toxic | Activity [17]: Non-toxic | Activity [18]: Non-toxic | Activity [19]: Non-toxic | Activity [20]: Non-toxic | Activity [21]: Non-toxic
